Like-named read-outs stand apart in the source and are kept apart here.
What was measured:
[1] = molecular target: T1, hT1R2/hT1R3 sweet receptor expressed in HEK293 cell line (Homo sapiens, UniProt Q7RTX0+Q8TE23); assay: In vitro hT1R2/hT1R3-HEK293 taste receptor activation assay (FLIPR); format: cell-based
T1 construct: expressed in transfected cells; host or cells: HEK293 derivative stably expressing Gα15 and hT1R2/hT1R3, clone S-9
T1 sequence (Q8TE23 20-839): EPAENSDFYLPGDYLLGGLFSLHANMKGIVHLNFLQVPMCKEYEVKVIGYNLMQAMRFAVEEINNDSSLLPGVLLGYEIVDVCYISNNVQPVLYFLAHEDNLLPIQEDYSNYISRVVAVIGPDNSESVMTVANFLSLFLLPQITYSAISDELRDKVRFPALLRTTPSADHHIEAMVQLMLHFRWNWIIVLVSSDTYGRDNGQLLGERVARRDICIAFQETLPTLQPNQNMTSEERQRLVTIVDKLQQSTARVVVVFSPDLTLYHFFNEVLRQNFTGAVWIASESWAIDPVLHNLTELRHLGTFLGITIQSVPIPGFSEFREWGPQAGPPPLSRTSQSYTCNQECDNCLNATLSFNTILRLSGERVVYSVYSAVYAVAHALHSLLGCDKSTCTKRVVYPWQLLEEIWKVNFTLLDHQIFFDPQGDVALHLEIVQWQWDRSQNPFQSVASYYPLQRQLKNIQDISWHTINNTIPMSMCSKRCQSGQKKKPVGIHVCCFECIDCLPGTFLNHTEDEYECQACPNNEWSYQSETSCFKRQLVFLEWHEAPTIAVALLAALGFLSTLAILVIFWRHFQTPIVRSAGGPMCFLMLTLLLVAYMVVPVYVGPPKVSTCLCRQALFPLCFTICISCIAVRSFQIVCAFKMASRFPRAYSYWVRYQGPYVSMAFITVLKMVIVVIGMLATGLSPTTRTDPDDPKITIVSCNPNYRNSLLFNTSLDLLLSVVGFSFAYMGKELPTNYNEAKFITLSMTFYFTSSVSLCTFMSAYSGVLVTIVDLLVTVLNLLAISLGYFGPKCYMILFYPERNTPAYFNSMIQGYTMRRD
T1 sequence (Q7RTX0 21-852): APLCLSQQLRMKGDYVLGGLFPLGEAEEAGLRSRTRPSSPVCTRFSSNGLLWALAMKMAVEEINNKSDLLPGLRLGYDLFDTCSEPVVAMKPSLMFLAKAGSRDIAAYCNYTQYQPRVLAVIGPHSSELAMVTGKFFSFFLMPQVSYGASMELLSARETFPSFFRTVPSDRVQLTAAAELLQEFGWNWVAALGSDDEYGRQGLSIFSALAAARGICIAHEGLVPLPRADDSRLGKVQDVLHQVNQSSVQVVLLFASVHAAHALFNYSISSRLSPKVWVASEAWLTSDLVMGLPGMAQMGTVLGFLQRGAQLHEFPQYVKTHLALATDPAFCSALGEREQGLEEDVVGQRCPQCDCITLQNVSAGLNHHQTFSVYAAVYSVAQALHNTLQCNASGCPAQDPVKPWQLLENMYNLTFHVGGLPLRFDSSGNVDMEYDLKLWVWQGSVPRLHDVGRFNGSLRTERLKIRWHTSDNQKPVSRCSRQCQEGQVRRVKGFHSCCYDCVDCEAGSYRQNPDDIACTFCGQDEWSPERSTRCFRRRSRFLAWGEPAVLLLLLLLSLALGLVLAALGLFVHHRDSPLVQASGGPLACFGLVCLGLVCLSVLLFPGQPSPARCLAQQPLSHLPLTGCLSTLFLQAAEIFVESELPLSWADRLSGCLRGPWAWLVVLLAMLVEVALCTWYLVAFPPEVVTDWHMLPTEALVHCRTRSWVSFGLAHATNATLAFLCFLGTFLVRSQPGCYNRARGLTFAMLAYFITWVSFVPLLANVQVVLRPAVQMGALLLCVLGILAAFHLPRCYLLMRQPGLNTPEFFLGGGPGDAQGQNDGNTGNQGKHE
Outline: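 HEK293 cells stably expressing Gα15 and hT1R2/hT1R3 were loaded with Fluo-3AM (4 μM, 1 h, room temperature), then stimulated at room temperature in D-PBS. Peak fluorescence (ex 480/em 535 nm) was normalized to basal. Dose-responses were run in duplicate over 60 nM–30 μM, normalized to 400 mM D-fructose, and EC50 fitted by free-Hill non-linear regression.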

Human Panelists [2] = assay: Difference from Reference human taste test (Table B); format: in vivo; settings: 5 μM compound + 6% fructose/glucose, pH 7.1
Description: Purpose: To determine how the intensity of a test sample of an experimental compound differs from that of a reference sample in terms of sweetness. This type of study requires a larger number of evaluations in order to obtain statistically significant data, so the test may be repeated with the same or additional panelists.
Subjects rate the difference in intensity of the test sample compared to the reference sample for the key attribute on a scale of −5 (much less sweet than the reference) to +5 (much sweeter than the reference). A score of 0 indicates the test sample is equally as sweet as the reference.
Procedure: Ten or more Subjects are used for the Difference from Reference tests. Subjects have been previously familiarized with the key attribute taste and are trained to use the −5 to +5 scale. Subjects refrain from eating or drinking (except water) for at least 1 hour prior to the test. Subjects eat a cracker and rinse with water four times to clean the mouth. […]
The scores for each test are averaged across Subjects and standard error is calculated. Panel accuracy can be determined using the score from the blind reference test. […]

Human Panelists [3] = assay: Line Scale sensory testing human taste test (Table C); format: in vivo; settings: low sodium buffer pH 7.1
Description: Purpose: To create a dose-response curve for perceived sweetness intensity of fructose-glucose concentrations. Test samples containing experimental compound are compared to this dose-response curve to determine equivalent sweetness intensity. This type of study requires a number of evaluations in order to obtain statistically significant data, so the test may be repeated with the same or additional panelists.
Overview: A group of eight or more panelists taste solutions including fructose-glucose at various concentrations, as well as the experimental compound, both with and without added fructose-glucose. Panelists rate sweetness intensity of all samples on an unstructured horizontal line scale, anchored from 0 to 10, where 0 equals no sweetness and 10 equals intense sweetness. Scores for sweetness intensity are averaged across panelists. Then using the average scores and/or equation of the line for the fructose-glucose dose-response curve, equivalent sweetness fructose-glucose concentrations are determined for the samples containing experimental compound.
Procedure: Eight or more subjects are used for the Line Scale tests. Subjects have been previously familiarized with the key attribute taste and are trained to use the 0 to 10 unstructured line scale. Subjects refrain from eating or drinking (except water) for at least 1 hour prior to the test. Subjects eat a cracker and rinse with water several times to clean the mouth.
Fructose-glucose solutions are provided at a wide range of concentrations, such as 0%, 2%, 4%, 6%, 8%, and 10% fructose-glucose, in order to create the dose-response curve. Samples containing experimental compound are prepared both alone and in a 6% fructose-glucose solution. All samples are made up in low sodium buffer pH 7.1. In order to aid dispersion, solutions can also be made up in 0.1% ethanol.
The solutions are dispensed in 20 ml volumes into 1 oz. sample cups and served to the subjects at room temperature. All samples are presented in randomized counterbalanced order to reduce response bias. Further, two sessions of testing may be used to check panel precision.
Subjects taste each sample individually and rate sweetness intensity on the line scale prior to tasting the next sample. All samples are expectorated. Subjects may retaste the samples but can only use the volume of sample given. Subjects must rinse with water between samples. Eating an unsalted cracker between sample pairs may be required depending on the samples tasted.
The scores for each sample are averaged across subjects and standard error is calculated. The dose-response curve is plotted graphically, and this may be used to ensure the panel is rating accurately; i.e. increasing the concentration of fructose-glucose should correspond to increased average scores for sweetness. A 2-way ANOVA (factors being samples and panelists) and multiple comparison tests (such as Tukey's Honestly Significant Difference test) can be used to determine differences among samples and/or panelists. A 3-way ANOVA, with sessions as the third factor, can be used to determine if there is any difference in the ratings between sessions.

[4] = read-out: EC50 for activation of a hT1R2/hT1R3 sweet receptor expressed in HEK293 cell line
[5] = 10 μM compound + 6% fructose/glucose
[6] = 5 μM compound + 6% fructose/glucose

Row | EC50 [1, 4] | EC50 ([1]; Table A, read-out: SWEET EC50) | SMILES | further results
1 | 850 nM | – | Cc1cscc1-c1ccc(C(C)(C)C(=O)NCC(C)C)cc1 [Compound 2, N-Isobutyl-2-methyl-2-(4-(4-methylthiophen-3-yl)phenyl)propanamide] | Perceived Equivalent Sweet Solution (Human Panelists [2]): ≥ 9% fructose/glucose
2 | 20 nM | – | CC(C)CNC(=O)C(C)(C)c1ccc(-c2cncc(C#N)n2)cc1 [Compound 20, 2-(4-(6-cyanopyrazin-2-yl)phenyl)-N-isobutyl-2-methylpropanamide] | Perceived Equivalent Sweet Solution (Human Panelists [3]; [5]): Equal to 10% fructose/ % fructose/glucose; Perceived Equivalent Sweet Solution (Human Panelists [3]; 10 μM compound alone): Equal to 6% fructose/ % fructose/glucose
3 | 230 nM | – | CCC(C)CNC(=O)C(C)(C)c1ccc(-c2cncnc2)cc1 (stereo not shown) [Compound 25, 2-methyl-N-(2-methylbutyl)-2-(4-(pyrimidin-5-yl)phenyl)propanamide] | Perceived Equivalent Sweet Solution (Human Panelists [3]; [5]): Equal to 10% fructose/ % fructose/glucose
4 | 260 nM | – | COCc1cccc(-c2ccc(C(C)(C)C(=O)NCC(C)C)cc2OC)c1 [Compound 27, N-isobutyl-2-(2-methoxy-3′-(methoxymethyl)biphenyl-4-yl)-2-methylpropanamide] | Perceived Equivalent Sweet Solution (Human Panelists [3]; [6]): Equal to 8% fructose/ % fructose/glucose
5 | 610 nM | – | COCc1cccc(-c2ccc(C(C)(C)C(=O)NCC(C)C)cc2)c1 [Compound 30, N-isobutyl-2-(3′-(methoxymethyl)biphenyl-4-yl)-2-methylpropanamide] | Perceived Equivalent Sweet Solution (Human Panelists [3]; [6]): Equal to 10% fructose/ % fructose/glucose
6 | 910 nM | – | COCc1cncc(-c2ccc(C(C)(C)C(=O)NCC(C)C)cc2)c1 [Compound 32, N-isobutyl-2-(4-(5-(methoxymethyl)pyridin-3-yl)phenyl)-2-methylpropanamide] | Perceived Equivalent Sweet Solution (Human Panelists [3]; [5]): Equal to 8% fructose/ % fructose/glucose
7 | 960 nM | – | CC(C)CNC(=O)C(C)(C)c1ccc(-c2cccn2C)cc1 [Compound 34, N-isobutyl-2-methyl-2-(4-(1-methyl-1H-pyrrol-2-yl)phenyl)propanamide] | Perceived Equivalent Sweet Solution (Human Panelists [3]; [6]): Equal to 8% fructose/ % fructose/glucose; melting point: 59 to 60 °C
8 | 1870 nM | – | CC[C@@H](CO)NC(=O)C(C)(C)c1ccc(-c2cccc(COC)c2)cc1 [Compound 39, (S)-N-(1-hydroxybutan-2-yl)-2-(3′-(methoxymethyl)biphenyl-4-yl)-2-methylpropanamide] | Perceived Equivalent Sweet Solution (Human Panelists [3]; 15 μM compound + 6% fructose/glucose): Equal to 8% fructose/ % fructose/glucose; melting point: 73 to 75 °C
9 | 1010 nM | – | CC(C)CNC(=O)C(C)(C)c1ccc(-c2cncnc2)cc1 [Compound 43, N-isobutyl-2-methyl-2-(4-(pyrimidin-5-yl)phenyl)propanamide] | Perceived Equivalent Sweet Solution (Human Panelists [3]; [5]): Equal to 8% fructose/ % fructose/glucose
10 | – | 210 nM | CC(C)CNC(=O)C(C)(C)c1ccc(-c2cncc(OC(C)C)c2)cc1 [Compound A87] | –
11 | – | 370 nM | COc1ccc([C@@H](C)NC(=O)C(C)(C)c2ccc(-c3cncnc3)cc2)cc1 [Compound A88] | –
12 | – | 410 nM | CC(C)(C(=O)NC1CCCCC1)c1ccc(-c2cncnc2)cc1 [Compound A89] | –
13 | – | 480 nM | CCCNC(=O)C(C)(C)c1ccc(-c2cncc(C#N)c2)cc1 [Compound A90] | –
14 | – | 620 nM | CCC(CC)CNC(=O)C(C)(C)c1ccc(-c2cncc(C#N)c2)cc1 [Compound A91] | –
15 | – | 630 nM | CC(C)CNC(=O)C(C)(C)c1ccc(-c2cc(CO)ccc2C=O)cc1 [Compound A92] | –
16 | – | 900 nM | CCC(C(=O)NCC(C)C)c1ccc(-c2ccccc2)cc1 (stereo not shown) [Compound A93] | –

— patent US7842324B2 (Senomyx, Inc., priority 2005, dated 2010)
